This series has as its system CCRIS mutagenicity, Ames/micronucleus/aberration tests. Briefly: CCRIS mutagenicity studies.

The source made the active and inactive calls. No rule for the calls is given here.

In the case of `CC1(C)C(C(=O)OC(C#N)c2cccc(Oc3ccccc3)c2)C1(C)C` (stereo not given), the mutagenic call (End Point: In vitro chromasomal aberrations, Test System: Chinese hamster ovary (CHO-K1) cells, Metabolic Activation: None) was “inactive; negative”; the mutagenic call (End Point: In vitro chromasomal aberrations, Test System: Chinese hamster ovary (CHO-K1) cells, Metabolic Activation: Rat, liver, S-9, PCB) is “inactive; negative”; the mutagenic call (Test System: AMES SALMONELLA TYPHIMURIUM, Strain/Indicator: TA98, Metabolic Activation: NONE, Method: STANDARD PLATE) is “inactive; negative”; the mutagenic call (Test System: AMES SALMONELLA TYPHIMURIUM, Strain/Indicator: TA98, Metabolic Activation: S-9, Method: STANDARD PLATE) is “inactive; negative”; the mutagenic call (Test System: AMES SALMONELLA TYPHIMURIUM, Strain/Indicator: TA100, Metabolic Activation: NONE, Method: STANDARD PLATE) was “inactive; negative”; the mutagenic call (Test System: AMES SALMONELLA TYPHIMURIUM, Strain/Indicator: TA100, Metabolic Activation: S-9, Method: STANDARD PLATE) was “inactive; negative”. In addition, the mutagenic call runs as follows: (Test System: AMES SALMONELLA TYPHIMURIUM, Strain/Indicator: TA1535, Metabolic Activation: NONE, Method: STANDARD PLATE) “inactive; negative”; (Test System: AMES SALMONELLA TYPHIMURIUM, Strain/Indicator: TA1535, Metabolic Activation: S-9, Method: STANDARD PLATE) “inactive; negative”; (Test System: AMES SALMONELLA TYPHIMURIUM, Strain/Indicator: TA1537, Metabolic Activation: NONE, Method: STANDARD PLATE) “inactive; negative”; (Test System: AMES SALMONELLA TYPHIMURIUM, Strain/Indicator: TA1537, Metabolic Activation: S-9, Method: STANDARD PLATE) “inactive; negative”; (Test System: Ames Salmonella typhimurium, Strain/Indicator: TA98, Metabolic Activation: Rat, Liver, S-9, Kanechlor-400, Method: Preincubation) “inactive; negative”; (Test System: Ames Salmonella typhimurium, Strain/Indicator: TA100, Metabolic Activation: Rat, Liver, S-9, Kanechlor-400, Method: Preincubation) “inactive; negative”. In addition, the mutagenic call reads like this: (Test System: Ames Salmonella typhimurium, Strain/Indicator: TA1535, Metabolic Activation: Rat, Liver, S-9, Kanechlor-400, Method: Preincubation) “inactive; negative”; (Test System: Ames Salmonella typhimurium, Strain/Indicator: TA1537, Metabolic Activation: Rat, Liver, S-9, Kanechlor-400, Method: Preincubation) “inactive; negative”; (Test System: Ames Salmonella typhimurium, Strain/Indicator: TA1538, Metabolic Activation: Rat, Liver, S-9, Kanechlor-400, Method: Preincubation) “inactive; negative”; (Test System: E. coli, Strain/Indicator: WP2uvrA, Metabolic Activation: Rat, Liver, S-9, Kanechlor-400, Method: Preincubation) “inactive; negative”.

In the case of `Nc1cc2cccc3ccc4cccc1c4c32`, the mutagenic call reads like this: (Test System: AMES SALMONELLA TYPHIMURIUM, Strain/Indicator: TA98, Metabolic Activation: RAT, LIVER, S-9, AROCLOR 1254 (2 OR 4%), Method: STANDARD PLATE) “active; positive”; (Test System: AMES SALMONELLA TYPHIMURIUM, Strain/Indicator: TA100, Metabolic Activation: RAT, LIVER, S-9, AROCLOR 1254 (2%), Method: STANDARD PLATE) “active; positive”; (Test System: AMES SALMONELLA TYPHIMURIUM, Strain/Indicator: TA1535, Metabolic Activation: RAT, LIVER, S-9, AROCLOR 1254 (2%), Method: STANDARD PLATE) “inactive; negative”; (Test System: AMES SALMONELLA TYPHIMURIUM, Strain/Indicator: TA1537, Metabolic Activation: RAT, LIVER, S-9, AROCLOR 1254 (2%), Method: STANDARD PLATE) “active; positive”.

The record behind these values is PubChem BioAssay AID1259407 (Chemical Carcinogenesis Research Information System (CCRIS), 2018).
